{
  "source": "patent US20140039171A1",
  "about": "“NOVEL MACROLIDE INTERMEDIATE AND NOVEL PRODUCTION PROCESS” (MEIJI SEIKA PHARMA CO., LTD., priority 2011, published 2014)",
  "experiment_in_all_cases": "in vitro antibacterial activity, broth microdilution method (CLSI M31-A2), MIC",
  "format_in_all_cases": "cell-based",
  "key": {"H. parasuis": {"system": "H. parasuis", "protocol": "(§1) The compound obtained in the present invention was measured for its in vitro antibacterial activity by a broth microdilution method in accordance with a CLSI method (formerly NCCLS method, […]-A2) (Performance Standards for Antimicrobial Disk and Dilution Susceptibility Tests for Bacteria Isolated from Animals; Approved Standard-Second Edition NCCLS […]-A2 Vol. 22 No. 6 2002). A medium composition used in the measurement is shown below. […] The resultant test drug solution was further subjected to two-step dilution with the liquid medium shown below to prepare a test drug solution at each concentration level. The thus prepared test drug solution at each concentration level was dispensed into a 96-well microplate at 100 μL/well, and a test bacterial strain was inoculated at about 5×10^4 CFU/well. After having been cultured in the presence of 5% CO2 gas at 37° C. for 20 to 24 hours, the test bacterial strain was visually observed for the presence or absence of its growth. A minimum drug concentration completely inhibiting the growth of the test bacterial strain was defined as a minimum inhibitory concentration (hereinafter referred to as MIC). […] Saponin was dissolved with purified water. The solution was sterilized and then added to defibrinated horse blood."}, "P. multocida": {"system": "P. multocida", "protocol": "as §1"}, "A. pleuropneumoniae": {"system": "A. pleuropneumoniae", "protocol": "as §1"}, "M. haemolytica": {"system": "M. haemolytica", "protocol": "as §1"}, "H. somni": {"system": "H. somni", "protocol": "as §1"}, "[1]": {"details": "P. multocida (bovine) strain 11272R"}, "[2]": {"details": "P. multocida (bovine) strain 11325-1R"}, "[3]": {"details": "P. multocida (bovine) strain 11787-24R1"}, "[4]": {"details": "P. multocida (bovine) strain ATCC43019"}, "[5]": {"details": "P. multocida (swine) strain 11587-3R"}, "[6]": {"details": "P. multocida (swine) strain 11745-15R"}, "[7]": {"details": "P. multocida (swine) strain ATCC43137"}, "[8]": {"details": "A. pleuropneumoniae strain 10895-2R"}, "[9]": {"details": "A. pleuropneumoniae strain 11684-7R"}, "[10]": {"details": "A. pleuropneumoniae strain 11796-1R"}, "[11]": {"details": "A. pleuropneumoniae strain 11804-2R"}, "[12]": {"details": "A. pleuropneumoniae strain ATCC27089"}},
  "data": [
    {"smiles": "CCC(=O)OC1CC(=O)OC(C)CC(O)C(N(C)CCCc2ccnc3ccccc23)C=CC(OC(C)=O)C(C)CC(CC=O)C(OC2OC(C)C(O)C(N(C)C)C2O)C1OC", "note": "(stereo not drawn) [(IIIa)]", "values": [
      {"measurement": "MIC", "setting": "H. parasuis; H. parasuis strain 11510-1-2R", "result": 0.25, "unit": "µg/mL"},
      {"measurement": "MIC", "setting": "H. parasuis; H. parasuis strain 11640-1R", "result": 2, "unit": "µg/mL"},
      {"measurement": "MIC", "setting": "P. multocida; [1]", "result": 4, "unit": "µg/mL"},
      {"measurement": "MIC", "setting": "P. multocida; [2]", "result": 2, "unit": "µg/mL"},
      {"measurement": "MIC", "setting": "P. multocida; [3]", "result": 4, "unit": "µg/mL"},
      {"measurement": "MIC", "setting": "P. multocida; [4]", "result": 4, "unit": "µg/mL"},
      {"measurement": "MIC", "setting": "P. multocida; [5]", "result": 4, "unit": "µg/mL"},
      {"measurement": "MIC", "setting": "P. multocida; [6]", "result": 4, "unit": "µg/mL"},
      {"measurement": "MIC", "setting": "P. multocida; [7]", "result": 2, "unit": "µg/mL"},
      {"measurement": "MIC", "setting": "A. pleuropneumoniae; [8]", "result": 4, "unit": "µg/mL"},
      {"measurement": "MIC", "setting": "A. pleuropneumoniae; [9]", "result": 16, "unit": "µg/mL"},
      {"measurement": "MIC", "setting": "A. pleuropneumoniae; [10]", "result": 4, "unit": "µg/mL"},
      {"measurement": "MIC", "setting": "A. pleuropneumoniae; [11]", "result": 4, "unit": "µg/mL"},
      {"measurement": "MIC", "setting": "A. pleuropneumoniae; [12]", "result": 4, "unit": "µg/mL"},
      {"measurement": "MIC", "setting": "M. haemolytica; M. haemolytica strain 11443R", "result": 2, "unit": "µg/mL"},
      {"measurement": "MIC", "setting": "M. haemolytica; M. haemolytica strain 11467-2R", "result": 4, "unit": "µg/mL"},
      {"measurement": "MIC", "setting": "H. somni; H. somni strain 11321R", "result": 0.5, "unit": "µg/mL"},
      {"measurement": "MIC", "setting": "H. somni; H. somni strain 11423-3R", "result": 1, "unit": "µg/mL"}
    ]},
    {"smiles": "CO[C@@H]1C(OC2O[C@@H](C)C(O)C(N(C)C)C2O)[C@@H](CC=O)C[C@@H](C)[C@@H](OC(C)=O)/C=C/[C@@H](N(C)CCCc2ccnc3ccccc23)[C@@H](O)C[C@@H](C)OC(=O)C[C@H]1OC(C)=O", "note": "(stereo partly drawn) [(IIIb)]", "values": [
      {"measurement": "MIC", "setting": "H. parasuis; H. parasuis strain 11510-1-2R", "result": 0.5, "unit": "µg/mL"},
      {"measurement": "MIC", "setting": "H. parasuis; H. parasuis strain 11640-1R", "result": 4, "unit": "µg/mL"},
      {"measurement": "MIC", "setting": "P. multocida; [1]", "result": 4, "unit": "µg/mL"},
      {"measurement": "MIC", "setting": "P. multocida; [2]", "result": 2, "unit": "µg/mL"},
      {"measurement": "MIC", "setting": "P. multocida; [3]", "result": 4, "unit": "µg/mL"},
      {"measurement": "MIC", "setting": "P. multocida; [4]", "result": 4, "unit": "µg/mL"},
      {"measurement": "MIC", "setting": "P. multocida; [5]", "result": 4, "unit": "µg/mL"},
      {"measurement": "MIC", "setting": "P. multocida; [6]", "result": 4, "unit": "µg/mL"},
      {"measurement": "MIC", "setting": "P. multocida; [7]", "result": 4, "unit": "µg/mL"},
      {"measurement": "MIC", "setting": "A. pleuropneumoniae; [8]", "result": 4, "unit": "µg/mL"},
      {"measurement": "MIC", "setting": "A. pleuropneumoniae; [9]", "result": 32, "unit": "µg/mL"},
      {"measurement": "MIC", "setting": "A. pleuropneumoniae; [10]", "result": 4, "unit": "µg/mL"},
      {"measurement": "MIC", "setting": "A. pleuropneumoniae; [11]", "result": 8, "unit": "µg/mL"},
      {"measurement": "MIC", "setting": "A. pleuropneumoniae; [12]", "result": 4, "unit": "µg/mL"},
      {"measurement": "MIC", "setting": "M. haemolytica; M. haemolytica strain 11443R", "result": 4, "unit": "µg/mL"},
      {"measurement": "MIC", "setting": "M. haemolytica; M. haemolytica strain 11467-2R", "result": 4, "unit": "µg/mL"},
      {"measurement": "MIC", "setting": "H. somni; H. somni strain 11321R", "result": 0.5, "unit": "µg/mL"},
      {"measurement": "MIC", "setting": "H. somni; H. somni strain 11423-3R", "result": 1, "unit": "µg/mL"}
    ]}
  ]
}
